Assay results reported in patent US7253144B2, “Method for producing by cell-free protein synthesis system using thioredoxin-fused protein expression vector” (Riken, priority 2002, dated 2007).

How the values were obtained:
[1] = target: T1, human β2AR expressed in an insect cell (Sf9 cell) (Homo sapiens, UniProt P07550); assay: Ligand binding saturation experiment with [3H]DHA, positive control receptor; conditions: n=1, read-out: binding constant (Kd value)
T1 construct: expressed in transfected cells; host or cells: Sf9 insect cells

[2] = target: thioredoxin-fused β2AR-Gs and liposome complex; assay: Ligand binding saturation experiment with [3H]DHA on reconstituted membrane fraction; design: species or system human; conditions: average of three independent experiments; 0 to 25 nM [3H]DHA, 25° C., 60 minutes; read-out: binding constant (Kd value), average
Description: Subsequently, PBS was added to dilute the detergent, and 10% β-dodecylmaltoside (Nacalaitesque) was added dropwise to make the final concentration 1%. […] A complex of the reconstituted thioredoxin-fused β2AR-Gs after completion of the dialysis and the liposome was centrifuged for 1 hours at 100,000×g and 4° C., and the resultant precipitation fraction (reconstituted membrane fraction) was suspended in 50 μl of an incubation buffer (75 mM Tris-HCl (pH7.4), 12.5 mM MgCl2, 2 mM EDTA).
The ligand binding saturation experiment was conducted by incubating this reconstituted membrane fraction (complex of thioredoxin-fused β2AR-Gs and liposome) together with 0 to 25 nM tritium-labeled Dihidroalprenolol ([^3H]DHA) in 200 μl as a final volume of the incubation buffer at 25° C. for 60 minutes. A competition experiment was conducted by incubating the reconstituted membrane fraction described above together with 10 nM [^3H]DHA in the presence or absence of 10^−8 to 10^−2 MAlprenolol (Sigma).

T1 sequence (P07550 whole entry): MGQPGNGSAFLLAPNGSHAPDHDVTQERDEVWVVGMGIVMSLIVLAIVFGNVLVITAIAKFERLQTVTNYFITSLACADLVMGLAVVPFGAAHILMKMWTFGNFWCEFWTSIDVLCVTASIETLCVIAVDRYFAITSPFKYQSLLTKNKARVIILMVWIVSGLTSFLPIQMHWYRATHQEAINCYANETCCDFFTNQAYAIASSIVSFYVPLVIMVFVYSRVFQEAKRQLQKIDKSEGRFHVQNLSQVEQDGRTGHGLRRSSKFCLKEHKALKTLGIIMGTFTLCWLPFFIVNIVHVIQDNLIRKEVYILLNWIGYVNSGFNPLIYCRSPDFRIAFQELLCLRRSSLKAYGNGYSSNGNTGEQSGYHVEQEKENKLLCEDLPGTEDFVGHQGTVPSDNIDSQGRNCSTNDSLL

Kd [1]: 3.9 nM
Kd [2]: 5.5 ± 1.1 nM
SMILES: CCCc1ccccc1OCC(O)CNC(C)C (centres unmarked) [[^3H]DHA, Dihidroalprenolol]
